The results in this text go back to patent US20140370131A1, “Pharmaceutical Composition for Protecting Brain Neurons Comprising Plumula Nelumbinis Extract as Active Ingredient” (priority 2012, published 2014).

Assay [1] is described as follows: Hydrogen peroxide (H2O2) scavenging activity, ABTS-peroxidase system. Conditions: pH 5.0, absorbance at 405 nm. On the procedure: Hydrogen peroxide (H2O2) scavenging activity was measured in a 2,2-azinobis(3-ethylbenzthiazolin)-6-sulfonicacid (ABTS)-peroxidase system according to the Muller method. Each sample was diluted at varying concentrations. 80 μL of each sample solution, 20 μL of 10 mM H2O2 and 100 μL of phosphate buffer (pH 5.0, 0.1 M) were added to a 96-well plate and reacted at 37° C. for 5 minutes. Then, 30 μL of 1.25 mM ABTS and 30 μL of 1 U/mL peroxidase were added thereto and reacted at 37° C. for 10 minutes, and the absorbance at 405 nm was measured using an enzyme-linked immunosorbent assay (ELISA) reader.

The next assay concerns ICR mice. The experiment in a line: Morris water maze test, scopolamine-induced memory damage. The class given is in vivo, mouse. Conditions: memory acquisition test for 4 days; scopolamine 1 mg/kg i.p.; test samples oral (extract 3, 10, 30, 100, 200 mg/kg). On the procedure: To observe the cell-protecting effect and cognitive function-improving effect of the Plumula nelumbinis extract in vivo using a Morris water maze test, International Cancer Research (ICR) mice having an average weight of about 30 g were purchased and acclimated to the environment of the laboratory for 1 week before use in the experiment. The animal breeding room was maintained at room temperature (ca. 22±2° C.) with 12 h light (200-300 lux)/12 h dark cycles. The animals had free access to food (i.e., 22.1% or more crude protein, 8.0% or less crude fat, 0.6% or more calcium, and 0.4% or more phosphorus; Samyang Corp., Korea) and water. The animals were divided into a control group administered with the same amount of injectable saline without scopolamine (Sigma Aldrich), and a group administered with scopolamine. The group administered with scopolamine was treated with 3, 10, 30, 100 and 200 mg/kg of a 80% methanol extract of Plumula nelumbinis. As a positive control, donepezil was used, which is a cholinesterase inhibitor-based drug approved by the FDA, and is used for the treatment of mild, moderate, or severe Alzheimer's disease and for the alleviation of vascular dementia (i.e., dementia involving cerebrovascular disease).
Each of the test samples and the positive control drug was suspended in injectable sterile water and administered at a unit dose of 10 ml/kg. Scopolamine (1 mg/kg) was administered intraperitoneally each day for 4 days, and the test sample and the positive control drug were administered orally (FIGS. 8A and 8B).
In the water maze test, a learning trial was performed on the day before administration of the extract, and then a memory acquisition test was repeated for 4 days. In the learning trial, each test animal was placed into a water pool ([…]) at one of four release points and allowed to find a platform ([…]) by swimming for 60 seconds. […]
During the memory acquisition test, 1 mg/kg of scopolamine was administered intraperitoneally once a day for 4 days at 60 minutes after administration of the Plumula nelumbinis extract. […] The cognitive ability-improving effect was evaluated by measuring the average swimming time (sec) taken for the test animal to find the platform (sec).
After the learning trial for 1 day, scopolamine was administered to cause damage to cognitive function (memory), and the Moths water maze test was performed to examine the cognitive function-improving effect of the extract. In the memory acquisition test performed over 4 days, the cognitive function-improving effect of the extract was evaluated based on a decrease in each of the average swimming times taken to find the platform and the swimming distance. […]

A short description of assay [2]: DPPH radical scavenging activity. Particulars: 30 minutes in the dark, absorbance at 517 nm. The procedure:
The test sample was weighed, dissolved in methanol or ethanol, and then filtered through a 0.45-μm filter. The prepared sample was serially diluted. Varying concentrations of 150 μl of each diluted sample were added to a 96-well micro plate, followed by addition of DPPH. The 96-well micro plate was placed in a dark room and allowed to stand for 30 minutes. The absorbance at 517 nm was measured.

With `COc1ccc(O)c(C(C)(C)C)c1` [butylated hydroxy anisole (BHA), butylated hydroxy anisole], the “hydrogen peroxide (H2O2) scavenging IC50” value in assay [1] came to 160.58 µg/mL.
For `COc1cc2c(cc1OC)C(=O)C(CC1CCN(Cc3ccccc3)CC1)C2` (stereo not drawn) [donepezil], in the assay with ICR mice, the average swimming distance entry is listed as “gradual decreases” and the “average swimming time taken to find the platform” value was “gradual decreases”.
As for `CN1[C@@H]2C[C@@H](OC(=O)[C@H](CO)c3ccccc3)C[C@H]1[C@@H]1O[C@@H]12` [scopolamine], in the assay with ICR mice, the average swimming distance entry was “increased rather than decreased” and the “average swimming time taken to find the platform” value was “increased rather than decreased”.
`O=C1O[C@H]([C@@H](O)CO)C(O)=C1O` [vitamin C, ascorbic acid]: the “DPPH radical scavenging IC50” value in assay [2] stood at 27.73 µg/mL.
